Experimental data from patent publication US20060069132A1, “Azolecarboxamide herbicides” (priority 2004, published 2006).
Like-named read-outs stand apart in the source and are kept apart here.

Experiments:
redroot pigweed = assay: Test A pre-/postemergence herbicide test; assay type: in vivo, Amaranthus retroflexus; settings: Amaranthus retroflexus, 240 h; for pest or weed control at 500 g/ha: 500 g ai/ha; for pest or weed control at 2000 g/ha: 2000 g ai/ha
In short: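 Pre: seeded sandy loam, directed soil spray, compound in non-phytotoxic solvent + surfactant. Post: 1–2-leaf plants (2–10 cm), sprayed to runoff. Greenhouse ~10 d; visual injury vs untreated, 0–100 scale.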

barnyardgrass = assay: Test B pre-/postemergence herbicide test; assay type: in vivo, Echinochloa crus-galli; settings: Echinochloa crus-galli; for pest or weed control at 500 g/ha: 500 g ai/ha; for pest or weed control at 125 g/ha: 125 g ai/ha
In short: (§1)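 Test chemicals in a non-phytotoxic solvent mixture with surfactant were applied preemergence to seeded species and postemergence to plants 2-18 cm tall (1- to 4-leaf stage); rice and barnyardgrass were also tested in a flooded paddy at the 2-leaf stage. Visual rating versus controls after 13-15 days in greenhouse, scale 0 (no effect) to 100 (complete control).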

cocklebur = assay: Test B pre-/postemergence herbicide test; assay type: in vivo, Xanthium strumarium; settings: Xanthium strumarium; for pest or weed control at 500 g/ha: 500 g ai/ha; for pest or weed control at 125 g/ha: 125 g ai/ha
In short: as §1

bermudagrass = assay: Test C pre-/postemergence herbicide test; assay type: in vivo, Cynodon dactylon; settings: for pest or weed control at 250 g/ha: 250 g ai/ha; for pest or weed control at 125 g/ha: 125 g ai/ha
In short: (§2)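 Visual injury scores run from 0 (no effect) to 100 (complete control), assessed relative to untreated controls 12 to 14 days after treatment in the greenhouse. Chemicals were formulated in a non-phytotoxic solvent mixture with surfactant and applied to soil after planting or to emerged plants at the 1- to 4-leaf stage.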

Surinam grass = assay: Test C pre-/postemergence herbicide test; assay type: in vivo, Urochloa decumbens; settings: for pest or weed control at 125 g/ha: 125 g ai/ha
In short: as §2

morningglory = assay: Test C pre-/postemergence herbicide test; assay type: in vivo, Ipomoea coccinea
In short: as §2

pigweed = assay: Test C pre-/postemergence herbicide test; assay type: in vivo, Amaranthus retroflexus; settings: for pest or weed control at 125 g/ha: 125 g ai/ha
In short: as §2

[1] = post-emergence, Postemergence, 0 to 100 scale, 0 no effect, 100 complete control, read-out: Plant response rating, Pigweed

SMILES: CCOC(=O)c1cccc(NC(=O)c2cc(C(C)(C)C)nn2CC)c1 [Compound 80, ethyl 3-[[[3-(1,1-dimethylethyl)-1-ethyl-1H-pyrazol-5-yl]carbonyl]-amino]benzoate]
- pest or weed control at 500 g/ha (redroot pigweed; [1]): 100%
- pest or weed control at 2000 g/ha (redroot pigweed; [1]): 100%
- pest or weed control at 500 g/ha (redroot pigweed; pre-emergence, Preemergence, visual rating, 0 to 100 scale (0 no effect, 100 complete control), read-out: Pigweed plant response rating): 70%
- pest or weed control at 2000 g/ha (redroot pigweed; pre-emergence, Preemergence, 0 to 100 scale, 0 no effect, 100 complete control, read-out: Pigweed plant response rating): 90%
- pest or weed control at 500 g/ha (barnyardgrass; post-emergence, Postemergence, visual rating after 13 to 15 days, scale 0 (no effect) to 100 (complete control), read-out: Plant response rating, Barnyardgrass): 90%
- pest or weed control at 125 g/ha (barnyardgrass; post-emergence, postemergence, visual rating, scale 0 (no effect) to 100 (complete control), read-out: Barnyardgrass plant response rating): 80%
- pest or weed control at 500 g/ha (barnyardgrass; pre-emergence, Preemergence, scale 0 to 100, read-out: Barnyardgrass plant response rating): 20%
- pest or weed control at 125 g/ha (barnyardgrass; pre-emergence, preemergence, 0 to 100 scale, 0 is no effect, 100 is complete control, read-out: Plant response rating, Barnyardgrass): 0%
- pest or weed control at 500 g/ha (cocklebur; post-emergence, Postemergence, visual rating after 13 to 15 days, scale 0 (no effect) to 100 (complete control), read-out: Plant response rating, Cocklebur): 100%
- pest or weed control at 125 g/ha (cocklebur; post-emergence, postemergence, visual rating, scale 0 (no effect) to 100 (complete control), read-out: Cocklebur plant response rating): 70%
- pest or weed control at 500 g/ha (cocklebur; pre-emergence, Preemergence, scale 0 to 100, read-out: Cocklebur plant response rating): 0%
- pest or weed control at 125 g/ha (cocklebur; pre-emergence, preemergence, 0 to 100 scale, 0 is no effect, 100 is complete control, read-out: Plant response rating, Cocklebur): 0%
- Plant response rating (0 = no effect, 100 = complete control), Bermudagrass (bermudagrass; 62 g ai/ha, preemergence): 10
- pest or weed control at 250 g/ha (bermudagrass; Cynodon dactylon, post-emergence, 312 h, Postemergence, scale 0 to 100, read-out: Bermudagrass plant response rating): 100%
- pest or weed control at 125 g/ha (bermudagrass; Cynodon dactylon, post-emergence, 312 h, postemergence, scale 0 to 100, read-out: Plant response rating, Bermudagrass): 100%
- pest or weed control at 31 g/ha (bermudagrass; Cynodon dactylon, pre-emergence, 312 h, 31 g ai/ha, preemergence, scale 0 to 100, read-out: Plant response rating, Bermudagrass): 0%
- pest or weed control at 125 g/ha (bermudagrass; Cynodon dactylon, pre-emergence, 312 h, scale 0 (no effect) to 100 (complete control), visual, 12 to 14 days, read-out: Plant response rating, Bermudagrass): 10%
- pest or weed control at 250 g/ha (bermudagrass; Cynodon dactylon, pre-emergence, 312 h, scale 0 to 100 (0 no effect, 100 complete control), visual, 12 to 14 days, read-out: Plant response rating, Bermudagrass): 10%
- Plant response rating (0 = no effect, 100 = complete control), Surinam Grass (Surinam grass; 62 g ai/ha, preemergence): 0
- pest or weed control at 250 g/ha (Surinam grass; Urochloa decumbens, post-emergence, 312 h, Postemergence, 250 g ai/ha, scale 0 to 100, 0 no effect, 100 complete control, read-out: Plant response rating, Surinam Grass): 80%
- pest or weed control at 125 g/ha (Surinam grass; Urochloa decumbens, post-emergence, 312 h, postemergence, scale 0 to 100, read-out: Plant response rating, Surinam Grass): 80%
- pest or weed control at 62 g/ha (Surinam grass; Urochloa decumbens, post-emergence, 312 h, postemergence, 62 g ai/ha, scale 0 to 100, read-out: Plant response rating, Surinam Grass): 80%
- pest or weed control at 31 g/ha (Surinam grass; Urochloa decumbens, pre-emergence, 312 h, 31 g ai/ha, preemergence, scale 0 to 100, read-out: Plant response rating, Surinam Grass): 0%
- pest or weed control at 125 g/ha (Surinam grass; Urochloa decumbens, pre-emergence, 312 h, scale 0 (no effect) to 100 (complete control), visual, 12 to 14 days, read-out: Plant response rating, Surinam Grass): 10%
- Plant response rating (0 = no effect, 100 = complete control), Morningglory (morningglory; 62 g ai/ha, preemergence): 20
- pest or weed control at 250 g/ha (morningglory; Ipomoea, post-emergence, Postemergence, 250 g ai/ha, scale 0 to 100, 0 no effect, 100 complete control, read-out: Plant response rating, Morningglory): 90%
- pest or weed control at 125 g/ha (morningglory; Ipomoea, post-emergence, postemergence, 125 g ai/ha, scale 0 to 100, read-out: Plant response rating, Morningglory): 90%
- pest or weed control at 62 g/ha (morningglory; Ipomoea, post-emergence, postemergence, 62 g ai/ha, scale 0 to 100, read-out: Plant response rating, Morningglory): 90%
- pest or weed control at 31 g/ha (morningglory; Ipomoea, pre-emergence, 31 g ai/ha, preemergence, scale 0 to 100, read-out: Plant response rating, Morningglory): 0%
- Plant response rating (0 = no effect, 100 = complete control), Pigweed (pigweed; 62 g ai/ha, preemergence): 40
- pest or weed control at 250 g/ha (pigweed; Amaranthus retroflexus, post-emergence, Postemergence, 250 g ai/ha, scale 0 to 100, 0 no effect, 100 complete control, read-out: Plant response rating, Pigweed): 100%
- pest or weed control at 125 g/ha (pigweed; Amaranthus retroflexus, post-emergence, postemergence, scale 0 to 100, read-out: Plant response rating, Pigweed): 100%
- pest or weed control at 62 g/ha (pigweed; Amaranthus retroflexus, post-emergence, postemergence, 62 g ai/ha, scale 0 to 100, read-out: Plant response rating, Pigweed): 100%
- pest or weed control at 31 g/ha (pigweed; Amaranthus retroflexus, pre-emergence, 31 g ai/ha, preemergence, scale 0 to 100, read-out: Plant response rating, Pigweed): 30%
- pest or weed control at 125 g/ha (pigweed; Amaranthus retroflexus, pre-emergence, scale 0 (no effect) to 100 (complete control), visual, 12 to 14 days, read-out: Plant response rating, Pigweed): 100%
